In ChEMBL document CHEMBL5236646, “Design, synthesis, and biological evaluation of BRD4 degraders” (Bioorg Med Chem, 2023):

How the values were obtained:
[1] = molecular target: T1, Protein cereblon/Bromodomain-containing protein 4 (Homo sapiens) (UniProt O60885+Q96SW2); assay: Protac activity at CRBN/BRD4 in human MV4-11 cells assessed as induction of BRD4 protein degradation by measuring residual activity at 0.006 uM incubated for 3 hrs by Western blot analysis relative to control; assay type: cell-based
[2] = molecular target: T1, Protein cereblon/Bromodomain-containing protein 4 (Homo sapiens); assay: Protac activity at CRBN/BRD4 in human MV4-11 cells assessed as induction of BRD4 protein degradation by measuring residual activity at 0.018 uM incubated for 3 hrs by Western blot analysis relative to control; assay type: cell-based
[3] = molecular target: T1, Protein cereblon/Bromodomain-containing protein 4 (Homo sapiens); assay: Protac activity at CRBN/BRD4 in human MV4-11 cells assessed as induction of BRD4 protein degradation by measuring residual activity at 0.054 uM incubated for 3 hrs by Western blot analysis relative to control; assay type: cell-based
MV4-11 = assay: Antiproliferative activity against human […] cells assessed as inhibition of cell growth incubated for 72 hrs MTS assay; assay type: functional, cell-based; details: MV4-11, 72 h
MM1.S = assay: Antiproliferative activity against human MM1.S cells assessed as inhibition of cell growth incubated for 72 hrs MTS assay; assay type: functional, cell-based
[4] = molecular target: T1, Protein cereblon/Bromodomain-containing protein 4 (Homo sapiens); assay: Protac activity at CRBN/BRD4 in human MM1.S cells assessed as induction of BRD4 protein degradation by measuring residual activity at 0.06 uM incubated for 3 hrs by Western blot analysis relative to control; assay type: cell-based
[5] = molecular target: T1, Protein cereblon/Bromodomain-containing protein 4 (Homo sapiens); assay: Protac activity at CRBN/BRD4 in human MM1.S cells assessed as induction of BRD4 protein degradation by measuring residual activity at 0.18 uM incubated for 3 hrs by Western blot analysis relative to control; assay type: cell-based
[6] = molecular target: T1, Protein cereblon/Bromodomain-containing protein 4 (Homo sapiens); assay: Protac activity at CRBN/BRD4 in human MM1.S cells assessed as induction of BRD4 protein degradation by measuring residual activity at 0.54 uM incubated for 3 hrs by Western blot analysis relative to control; assay type: cell-based
[7] = Inhibition of TGF-beta induced activation of human MRC5 cells assessed as residual BRD4 protein level at 0.5 uM by Western blot analysis (reference value: 96%); assay type: functional
[8] = Inhibition of TGF-beta induced activation of human MRC5 cells assessed as residual BRD4 protein level at 0.1 uM by Western blot analysis (reference value: 96%); assay type: functional
[9] = molecular target: T1, Protein cereblon/Bromodomain-containing protein 4 (Homo sapiens); assay: Protac activity at CRBN/BRD4 in human MM1.S cells assessed as induction of BRD4 protein degradation by measuring residual activity at 1.8 uM incubated for 3 hrs by Western blot analysis relative to control; assay type: cell-based
[10] = molecular target: T1, Protein cereblon/Bromodomain-containing protein 4 (Homo sapiens); assay: Protac activity at CRBN/BRD4 in human MV4-11 cells assessed as induction of BRD4 protein degradation by measuring residual activity at 0.04 uM incubated for 3 hrs by Western blot analysis relative to control; assay type: cell-based
[11] = molecular target: T1, Protein cereblon/Bromodomain-containing protein 4 (Homo sapiens); assay: Protac activity at CRBN/BRD4 in human MV4-11 cells assessed as induction of BRD4 protein degradation by measuring residual activity at 0.36 uM incubated for 3 hrs by Western blot analysis relative to control; assay type: cell-based
[12] = molecular target: T1, Protein cereblon/Bromodomain-containing protein 4 (Homo sapiens); assay: Protac activity at CRBN/BRD4 in human MM1.S cells assessed as induction of BRD4 protein degradation by measuring residual activity at 0.6 uM incubated for 3 hrs by Western blot analysis relative to control; assay type: cell-based
[13] = molecular target: T1, Protein cereblon/Bromodomain-containing protein 4 (Homo sapiens); assay: Protac activity at CRBN/BRD4 in human MV4-11 cells assessed as induction of BRD4 protein degradation by measuring residual activity at 0.12 uM incubated for 3 hrs by Western blot analysis relative to control; assay type: cell-based
[14] = molecular target: T1, Protein cereblon/Bromodomain-containing protein 4 (Homo sapiens); assay: Protac activity at CRBN/BRD4 in human MM1.S cells assessed as induction of BRD4 protein degradation by measuring residual activity at 0.2 uM incubated for 3 hrs by Western blot analysis relative to control; assay type: cell-based
[15] = molecular target: T1, Protein cereblon/Bromodomain-containing protein 4 (Homo sapiens); assay: Protac activity at CRBN/BRD4 in human MV4-11 cells assessed as induction of BRD4 protein degradation by measuring residual activity at 0.18 uM incubated for 3 hrs by Western blot analysis relative to control; assay type: cell-based
[16] = molecular target: T1, Protein cereblon/Bromodomain-containing protein 4 (Homo sapiens); assay: Protac activity at CRBN/BRD4 in human MV4-11 cells assessed as induction of BRD4 protein degradation by measuring residual activity at 0.06 uM incubated for 3 hrs by Western blot analysis relative to control; assay type: cell-based
[17] = molecular target: T1, Protein cereblon/Bromodomain-containing protein 4 (Homo sapiens); assay: Protac activity at CRBN/BRD4 in human MM1.S cells assessed as induction of BRD4 protein degradation by measuring residual activity at 0.1 uM incubated for 3 hrs by Western blot analysis relative to control; assay type: cell-based
[18] = molecular target: T1, Protein cereblon/Bromodomain-containing protein 4 (Homo sapiens); assay: Protac activity at CRBN/BRD4 in human MM1.S cells assessed as induction of BRD4 protein degradation by measuring residual activity at 0.3 uM incubated for 3 hrs by Western blot analysis relative to control; assay type: cell-based
[19] = molecular target: T1, Protein cereblon/Bromodomain-containing protein 4 (Homo sapiens); assay: Protac activity at CRBN/BRD4 in human MM1.S cells assessed as induction of BRD4 protein degradation by measuring residual activity at 1 uM incubated for 3 hrs by Western blot analysis relative to control; assay type: cell-based
[20] = molecular target: T1, Protein cereblon/Bromodomain-containing protein 4 (Homo sapiens); assay: Protac activity at CRBN/BRD4 in human MV4-11 cells assessed as induction of BRD4 protein degradation by measuring residual activity at 0.02 uM incubated for 3 hrs by Western blot analysis relative to control; assay type: cell-based
[21] = molecular target: T1, Protein cereblon/Bromodomain-containing protein 4 (Homo sapiens); assay: Protac activity at CRBN/BRD4 in human MV4-11 cells assessed as induction of BRD4 protein degradation by measuring residual activity at 0.03 uM incubated for 3 hrs by Western blot analysis relative to control; assay type: cell-based
[22] = molecular target: T1, Protein cereblon/Bromodomain-containing protein 4 (Homo sapiens); assay: Protac activity at CRBN/BRD4 in human MV4-11 cells assessed as induction of BRD4 protein degradation by measuring residual activity at 0.01 uM incubated for 3 hrs by Western blot analysis relative to control; assay type: cell-based
[23] = molecular target: T1, Protein cereblon/Bromodomain-containing protein 4 (Homo sapiens); assay: Protac activity at CRBN/BRD4 in human MV4-11 cells assessed as induction of BRD4 protein degradation by measuring residual activity at 0.09 uM incubated for 3 hrs by Western blot analysis relative to control; assay type: cell-based
[24] = molecular target: T1, Protein cereblon/Bromodomain-containing protein 4 (Homo sapiens); assay: Protac activity at CRBN/BRD4 in human MM1.S cells assessed as induction of BRD4 protein degradation by measuring residual activity at 0.03 uM incubated for 3 hrs by Western blot analysis relative to control; assay type: cell-based
[25] = molecular target: T1, Protein cereblon/Bromodomain-containing protein 4 (Homo sapiens); assay: Protac activity at CRBN/BRD4 in human MM1.S cells assessed as induction of BRD4 protein degradation by measuring residual activity at 0.07 uM incubated for 3 hrs by Western blot analysis relative to control; assay type: cell-based

T1 sequence (Q96SW2 whole entry, looked up, other chains not shown): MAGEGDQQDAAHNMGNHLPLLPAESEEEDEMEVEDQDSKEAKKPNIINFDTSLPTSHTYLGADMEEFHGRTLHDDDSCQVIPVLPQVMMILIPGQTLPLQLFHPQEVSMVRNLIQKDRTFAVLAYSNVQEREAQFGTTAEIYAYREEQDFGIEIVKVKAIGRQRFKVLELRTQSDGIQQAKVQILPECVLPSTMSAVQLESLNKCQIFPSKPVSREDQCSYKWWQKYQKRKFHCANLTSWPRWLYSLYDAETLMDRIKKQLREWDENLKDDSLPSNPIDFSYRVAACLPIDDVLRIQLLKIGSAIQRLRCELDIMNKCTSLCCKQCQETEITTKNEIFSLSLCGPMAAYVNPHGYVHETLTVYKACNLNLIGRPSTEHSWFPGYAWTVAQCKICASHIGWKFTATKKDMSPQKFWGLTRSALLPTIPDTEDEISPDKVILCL

| SMILES | IC50 (MV4-11) | IC50 (MM1.S) | Activity [12] | Activity [14] | Activity [17] | Activity [18] | Activity [21] | Activity [22] | Activity [23] | further results |
| --- | --- | --- | --- | --- | --- | --- | --- | --- | --- | --- |
| Cc1sc2c(c1C)C(c1ccc(Cl)cc1)=N[C@@H](CC(=O)NCCCCC(=O)NCCOc1cccc3c1C(=O)N(C1CCC(=O)NC1=O)C3=O)c1nnc(C)n1-2 (some centres not stated) | 18 nM | 163 nM | – | – | – | – | – | – | – | Activity [1]: 105%; Activity [2]: 105%; Activity [3]: 117%; Activity [4]: 90%; Activity [5]: 111%; Activity [6]: 111% |
| COC(=O)c1ccc2c(c1)NC(=O)/C2=C(\Nc1ccc(N(C)C(=O)CN2CCN(C)CC2)cc1)c1ccccc1 [NINTEDANIB] | – | – | – | – | – | – | – | – | – | Activity [7]: 71%; Activity [8]: 88% |
| Cc1sc2c(c1C)C(c1ccc(Cl)cc1)=N[C@@H](CC(=O)NCCCCNC(=O)c1ccc(CNc3cccc4c3C(=O)N(C3CCC(=O)NC3=O)C4=O)cc1)c1nnc(C)n1-2 (some centres not stated) | 128 nM | 602 nM | 141% | 144% | – | – | – | – | – | Activity [9]: 139%; Activity [10]: 121%; Activity [11]: 131%; Activity [13]: 99% |
| Cc1sc2c(c1C)C(c1ccc(Cl)cc1)=N[C@@H](CC(=O)NCCNC(=O)c1ccc(COc3cccc4c3C(=O)N(C3CCC(=O)NC3=O)C4=O)cc1)c1nnc(C)n1-2 (some centres not stated) | 48 nM | 544 nM | – | – | 117% | 136% | – | – | – | Activity [15]: 82%; Activity [16]: 102%; Activity [19]: 123%; Activity [20]: 126% |
| Cc1sc2c(c1C)C(c1ccc(Cl)cc1)=N[C@@H](CC(=O)NCCNC(=O)c1ccc(COc3cccc4c3CN(C3CCC(=O)NC3=O)C4=O)cc1)c1nnc(C)n1-2 (some centres not stated) | 18 nM | 182 nM | – | – | 92% | 89% | 141% | 141% | 120% | Activity [24]: 99% |
| Cc1sc2c(c1C)C(c1ccc(Cl)cc1)=N[C@@H](CC(=O)NCCCCNC(=O)c1ccc(COc3cccc4c3C(=O)N(C3CCC(=O)NC3=O)C4=O)cc1)c1nnc(C)n1-2 (some centres not stated) | 25 nM | 297 nM | 87% | 97% | – | – | 108% | 126% | 91% | Activity [25]: 117% |
